# Where a SMILES comes first, the peptide text is derived from it. The star is where a group is joined. X1 = CCCCCCCCCCCCCCNC(=O)OC[C@H](C*)OC(=O)NCCCCCCCCCCCCCC; Palmitoyl = CCCCCCCCCCCCCCCC(=O)*
# How the values were obtained:
# [1] = Serum inflammatory cytokines after i.v. administration; assay type: in vivo, mice; conditions: 2 nmol per mouse i.v., 1 h, ELISA
# Procedure: (§1) Splenic DCs (5 × 10^5 cells/mL) were stimulated by Pam3 (200 nM), SUP3 (200 nM), or CpG ODN 1668 (20 nM; Adipogen IAX-200-001) in the GM-CSF (20 ng/mL) supplemented medium for indicated periods. Cell culture supernatants were harvested at indicated time points and stored at −40°C. RAW 264.7 cells and GMDCs were stimulated by lipopolysaccharide (LPS) (20 ng/mL; Adipogen IAX-100-013), Pam3, or SUP3 (both at 200 nM) for 24 h. For in vivo administration, Pam3 (2 nmol per mouse), SUP3 (2 nmol per mouse), or LPS (1 µg per mouse) were intravenously (i.v.) injected via tail veins. Serum was obtained through tail vein bleeding and centrifuged after coagulation and stored at −40°C. Cytokines (IL-6, eBioscience 88-7064; TNFα, eBioscience 88-7324; IL-12p40, BioLegend 431604), chemokine (MIP1α, R&D Systems DY450-05), and total IgM (eBioscience, 88-50470) were quantified by ELISA kits following the instructions of manufacturers.
# Figure 2 SUP3 induced more vigorous cytotoxic T lymphocytes (CTLs) responses than Pam3CSK4 without excessive production of inflammatory cytokines in vivo. […] The percentages of pentamer positive cells (CD19^− CD3^+ CD8^+ SIINFEKL/H-2Kb-Pentamer^+) in spleens, i.e., the OVA-specific CD8^+ T cells, were determined by flow cytometry (A) and the statistic calculation is presented in (B). […] “n.d.” indicates “not detected.” *p < 0.05, **p < 0.01. […]
# CD8^+ cDCs [2] = experiment: Costimulatory and MHC molecule expression on CD8+ cDCs in vitro; assay type: cell-based, mice; conditions: 200 nM, GM-CSF 20 ng/mL, 24 h, flow cytometry
# Procedure: Single cell suspensions were prepared, and cells were stained by fluorescence-conjugated antibodies and viability dye 7-AAD (eBioscience 00-6993) at 4°C for 30 min in the dark. Cells were washed, resuspended, and analyzed on LSR Fortessa (Becton Dickinson).
# Figure 4 SUP3 stimulated maturation of CD8^+ conventional dendritic cells (cDCs). (A) Purified CD8^+ cDCs were treated with SUP3 (200 nM) or Pam3 (200 nM) in the presence of granulocyte-macrophage colony-stimulating factor (GM-CSF) (20 ng/mL) for 24 h. The surface expression of costimulatory and major histocompatibility complex (MHC) molecules were then analyzed by flow cytometry. Representative data from three independent experiments were shown. “Isotype” represented relative isotype antibody staining of Pam3 or SUP3 stimulated cells. (B) SUP3 (2 nmol per mouse), Pam3 (2 nmol per mouse), or PBS were i.v. injected into mice for 1 h. Splenic CD8^+ cDCs were enriched, and surface expression of CD40 and CD86 was analyzed by flow cytometry. Representative data from two independent experiments with three mice for each group were shown. […] Supernatants were harvested 24 and 48 h post-stimulation, and cytokines were measured by ELISA. […]
# CD8^+ cDCs [3] = experiment: Cytokine production by purified CD8+ cDCs (ELISA); assay type: cell-based, mice; conditions: 200 nM, GM-CSF 20 ng/mL, 24 and 48 h
# Procedure: as §1
# Figure 4 SUP3 stimulated maturation of CD8^+ conventional dendritic cells (cDCs). […] The surface expression of costimulatory and major histocompatibility complex (MHC) molecules were then analyzed by flow cytometry. […] Splenic CD8^+ cDCs were enriched, and surface expression of CD40 and CD86 was analyzed by flow cytometry. […] Supernatants were harvested 24 and 48 h post-stimulation, and cytokines were measured by ELISA. […]
Compound,"serum IL-6, TNFα, IL-12p40 and MIP1α levels [1]","expression of CD40, CD80, CD86, and MHC-II on CD8+ cDCs (CD8^+ cDCs [2])",IL-6 and TNFα production by CD8+ cDCs (CD8^+ cDCs [3])
"CCCCCCCCCCCCCCCC(=O)N[C@@H](CSC[C@@H](COC(=O)NCCCCCCCCCCCCCC)OC(=O)NCCCCCCCCCCCCCC)C(=O)NCC(=O)N[C@@H](CCCCN)C(=O)N[C@@H](CCCCN)C(=O)N[C@@H](CCCCN)C(=O)O [SUP3, (2S,5S,8S,14R,18R)-2,5,8-tris(4-aminobutyl)-4,7,10,13,21-pentaoxo-14-palmitamido-18-((tetradecylcarbamoyl)oxy)-20-oxa-16-thia-3,6,9,12,22-pentaazahexatriacontan-1-oic acid] (Palmitoyl-C(X1)GKKK-OH)",maintained at low levels,substantial upregulation,only low levels
Pam3CSK4 [reference compound],maintained at low levels,substantial upregulation,only low levels

# Source: article PMC5318439, “The Novel Toll-Like Receptor 2 Agonist SUP3 Enhances Antigen Presentation and T Cell Activation by Dendritic Cells” (Frontiers in Immunology, 2017)
